Assays:
AVEFA [1] = assay: Pre-emergence herbicidal action against AVEFA; format: in vivo, Avena fatua; conditions: 320 g/ha, scored visually after 3 weeks vs untreated controls
Summary of the method: (§1)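 Scoring is visual, 3 weeks post-application, on a 0 to 100% scale relative to untreated controls (100% = plants died). Treatment is pre-emergence: aqueous suspensions or emulsions applied to the covering soil at 600 to 800 L/ha with 0.2% wetting agent.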

ALOMY [2] = assay: Pre-emergence herbicidal action against ALOMY; format: in vivo, Alopecurus myosuroides; conditions: 320 g/ha, scored visually after 3 weeks vs untreated controls
Summary of the method: as §1

AVEFA [3] = assay: Post-emergence herbicidal action against AVEFA; format: in vivo, Avena fatua; conditions: 80 g/ha, visual assessment after about 3 weeks
Summary of the method: (§2)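 Weeds were grown in sandy loam in a greenhouse and treated at the one-leaf stage, 2 to 3 weeks after sowing. WP or EC formulations were sprayed onto green parts at 600 to 800 l/ha water with 0.2% wetting agent. Visual % action versus untreated controls was scored after about 3 weeks.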

ALOMY [4] = assay: Post-emergence herbicidal action against ALOMY; format: in vivo, Alopecurus myosuroides; conditions: 80 g/ha, visual assessment after about 3 weeks
Summary of the method: as §2

DIGSA [5] = assay: Pre-emergence herbicidal action against DIGSA; format: in vivo, Digitaria sanguinalis; conditions: 320 g/ha, scored visually after 3 weeks vs untreated controls
Summary of the method: as §1

ABUTH = assay: Post-emergence herbicidal action against ABUTH; format: in vivo, Abutylon threophrasti; conditions: 80 g/ha, visual assessment about 3 weeks after treatment vs untreated controls
Method: Seeds of monocotyledonous and dicotyledonous weed and crop plants are laid out in sandy loam soil in wood-fiber pots, covered with soil and cultivated in a greenhouse under good growth conditions. 2 to 3 weeks after sowing, the test plants are treated at the one-leaf stage. The compounds of the invention, formulated in the form of wettable powders (WP) or as emulsion concentrates (EC), are then sprayed onto the green parts of the plants as aqueous suspension or emulsion at a water application rate equating to 600 to 800 l/ha with addition of 0.2% wetting agent. After the test plants have been left to stand in the greenhouse under optimal growth conditions for about 3 weeks, the action of the preparations is assessed visually in comparison to untreated controls (herbicidal action in percent (%): 100% activity=the plants have died, 0% activity=like control plants).

LOLRI [6] = assay: Post-emergence herbicidal action against LOLRI; format: in vivo, Lolium rigidum; conditions: 80 g/ha, visual assessment about 3 weeks after treatment vs untreated controls
Summary of the method: as §2

LOLRI [7] = assay: Pre-emergence herbicidal action against LOLRI (Table 8, titled post-emergence at 320 g/ha); format: in vivo, Lolium rigidum; conditions: table stands in the pre-emergence section
Summary of the method: as §1

ECHCG [8] = assay: Pre-emergence herbicidal action against ECHCG; format: in vivo, Echinochloa crus-galli; conditions: 320 g/ha, scored visually after 3 weeks vs untreated controls
Summary of the method: as §1

DIGSA [9] = assay: Post-emergence herbicidal action against DIGSA; format: in vivo, Digitaria sanguinalis; conditions: 80 g/ha, visual assessment about 3 weeks after treatment vs untreated controls
Summary of the method: as §2

SETVI [10] = assay: Post-emergence herbicidal action against SETVI; format: in vivo, Setaria viridis; conditions: 80 g/ha, visual assessment about 3 weeks after treatment vs untreated controls
Summary of the method: as §2

SETVI [11] = assay: Pre-emergence herbicidal action against SETVI; format: in vivo, Setaria viridis; conditions: 320 g/ha, scored visually after 3 weeks vs untreated controls
Summary of the method: as §1

ECHCG [12] = assay: Post-emergence herbicidal action against ECHCG; format: in vivo, Echinochloa crus-galli; conditions: 80 g/ha, visual assessment about 3 weeks after treatment vs untreated controls
Summary of the method: as §2

AMARE = assay: Pre-emergence herbicidal action against AMARE; format: in vivo, Amaranthus retroflexus; conditions: 320 g/ha
Summary of the method: as §1

MATIN = assay: Pre-emergence herbicidal action against MATIN; format: in vivo; conditions: 320 g/ha
Description: (§3) Seeds of monocotyledonous and dicotyledonous weed plants and crop plants are laid out in sandy loam soil in wood-fiber pots and covered with soil. The compounds of the invention, formulated in the form of wettable powders (WP) or as emulsion concentrates (EC), are then applied to the surface of the covering soil as aqueous suspension or emulsion at a water application rate equating to 600 to 800 L/ha with addition of 0.2% wetting agent.
(§4) After the treatment, the pots are placed in a greenhouse and kept under good growth conditions for the trial plants. The damage to the test plants is scored visually after a test period of 3 weeks by comparison with untreated controls (herbicidal activity in percent (%): 100% activity=the plants have died, 0% activity=like control plants).

VIOTR = assay: Pre-emergence herbicidal action against VIOTR; format: in vivo, Viola tricolor; conditions: 320 g/ha
Summary of the method: as §1

VERPE = assay: Pre-emergence herbicidal action against VERPE; format: in vivo, Veronica persica; conditions: 320 g/ha
Description: as §3, §4

Row | SMILES | Pre-emergence action against AVEFA in % (AVEFA [1]) | Pre-emergence action against ALOMY in % (ALOMY [2]) | Post-emergence action against AVEFA in % (AVEFA [3]) | Post-emergence action against ALOMY in % (ALOMY [4]) | Pre-emergence action against DIGSA in % (DIGSA [5]) | Post-emergence action against ABUTH in % (ABUTH) | Post-emergence action against LOLRI in % (LOLRI [6]) | Pre-emergence herbicidal action against LOLRI in % (LOLRI [7]) | Pre-emergence action against ECHCG in % (ECHCG [8]) | Post-emergence action against DIGSA in % (DIGSA [9]) | Post-emergence action against SETVI in % (SETVI [10]) | Pre-emergence action against SETVI in % (SETVI [11]) | Post-emergence action against ECHCG in % (ECHCG [12]) | Pre-emergence action against AMARE in % (AMARE) | Pre-emergence action against MATIN in % (MATIN) | Pre-emergence action against VIOTR in % (VIOTR) | Pre-emergence action against VERPE in % (VERPE)
1 | CC#Cc1cc(F)c(C2=C(OC(=O)C(C)C)C3(CCC(COCC)C3)NC2=O)c(OC)c1 (stereo not drawn) [Example P-64] | 80% | 100% | 80% | 100% | 100% | 80% | 100% | 100% | 90% | 100% | 100% | 100% | 100% | – | – | – | –
2 | C#CCOCC1CCC2(C1)NC(=O)C(c1c(C)cc(C#CC)cc1Cl)=C2O (stereo not drawn) [Example I-78] | 90% | 100% | 80% | 100% | 100% | – | 90% | 100% | 100% | 90% | 100% | 100% | 90% | 100% | 80% | 100% | 90%
3 | CC#Cc1cc(F)c(C2=C(O)C3(CCC(COCC)C3)NC2=O)c(OC)c1 (stereo not drawn) [Example I-42] | 90% | – | 90% | 90% | 100% | 80% | 90% | 100% | 80% | 100% | 100% | 100% | 100% | – | 80% | 80% | –
4 | CC#Cc1cc(Br)c(C2=C(OC(=O)OCC)C3(CCC(COCC)C3)NC2=O)c(OC)c1 (stereo not drawn) [Example P-05] | 100% | 100% | – | 100% | 100% | – | 100% | 100% | 100% | 100% | 100% | 100% | 100% | 100% | 90% | 100% | 80%
5 | CC#Cc1cc(F)c(C2=C(OC(=O)OCC)C3(CCC(COCC)C3)NC2=O)c(OC)c1 (stereo not drawn) [Example P-61] | 90% | 100% | 80% | 90% | 100% | 80% | 100% | 100% | 100% | 100% | 100% | 100% | 100% | – | – | – | 90%
